Data as given in publication PMC6237183 (Nature structural & molecular biology, 2018).
Values joined by “and” are separate entries in the source; they are usually repeats but may differ in a detail not shown here. Equal entries are not always repeated. “Also recorded” adds a separate entry of the source. Where two headings read alike, the source gives them in different places.

Experiments:
[1] = biological target: 5-HT2BR wild-type (Homo sapiens, UniProt P41595); test: Gq-mediated calcium flux FLIPR assay; details: for Gq calcium flux Emax: normalized to percent 5-HT stimulation; for EC50: agonist mode, N=3
5-HT2BR wild-type, sequence (P41595 whole entry): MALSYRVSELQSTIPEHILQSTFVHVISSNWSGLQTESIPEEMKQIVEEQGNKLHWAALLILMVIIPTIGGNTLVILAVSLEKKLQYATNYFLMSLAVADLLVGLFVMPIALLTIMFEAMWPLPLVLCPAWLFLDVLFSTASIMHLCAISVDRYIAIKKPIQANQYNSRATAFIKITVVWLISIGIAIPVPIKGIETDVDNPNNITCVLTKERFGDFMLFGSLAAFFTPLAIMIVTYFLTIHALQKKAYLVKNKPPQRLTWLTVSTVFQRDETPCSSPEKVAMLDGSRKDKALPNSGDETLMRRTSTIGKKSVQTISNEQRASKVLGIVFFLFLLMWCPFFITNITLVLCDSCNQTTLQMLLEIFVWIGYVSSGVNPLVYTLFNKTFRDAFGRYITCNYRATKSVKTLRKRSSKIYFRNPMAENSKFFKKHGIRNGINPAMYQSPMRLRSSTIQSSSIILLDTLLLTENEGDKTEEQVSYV

[2] = biological target: T1, 5-HT2BR L362F^7.35 (Homo sapiens, UniProt P41595, L362F); test: BRET β-arrestin2 recruitment assay; details: L362F^7.35 mutant
T1 sequence (P41595 whole entry L362F): as the sequence (P41595 whole entry) above, with L362F counted along it

[3] = biological target: T1, 5-HT2BR L362F^7.35; test: [3H]-LSD dissociation radioligand binding assay; details: L362F^7.35 vs WT
[4] = biological target: T1, 5-HT2BR L362F^7.35; details: L362F^7.35 mutant
[5] = biological target: 5-HT2BR L362A^7.35 (Homo sapiens, UniProt P41595, L362A); test: Gq-mediated calcium flux FLIPR assay; details: L362A^7.35 mutant, % 5-HT
5-HT2BR L362A^7.35, sequence (P41595 whole entry L362A): as the sequence (P41595 whole entry) above, with L362A counted along it

[6] = biological target: 5-HT2BR WT (Homo sapiens, UniProt P41595); test: β-Arrestin2 recruitment Tango assay
5-HT2BR WT, sequence (P41595 whole entry): as the sequence (P41595 whole entry) above

[7] = biological target: T1, 5-HT2BR L362F^7.35; test: Gq-mediated calcium flux FLIPR assay; details: L362F^7.35 mutant
[8] = biological target: T2, 5-HT2BR (Homo sapiens, UniProt P41595); test: BRET β-arrestin2 recruitment assay
T2 sequence (P41595 whole entry): as above

[9] = biological target: T2, 5-HT2BR; test: Phosphoinositide; assay type: cell-based
[10] = biological target: T3, 5-HT2BR T140V^3.37 (Homo sapiens, UniProt P41595, T140V); test: [3H]-LSD competitive radioligand binding; details: T140V^3.37 mutant, relative to wild-type
T3 sequence (P41595 whole entry T140V): as the sequence (P41595 whole entry) above, with T140V counted along it

[11] = biological target: T4, 5-HT2BR T140S^3.37 (Homo sapiens, UniProt P41595, T140S); test: [3H]-LSD competitive radioligand binding; details: T140S^3.37 mutant, relative to wild-type
T4 sequence (P41595 whole entry T140S): as the sequence (P41595 whole entry) above, with T140S counted along it

[12] = biological target: T5, 5-HT2BR T140A^3.37 (Homo sapiens, UniProt P41595, T140A); test: β-Arrestin2 recruitment Tango assay; details: T140A^3.37 mutant
T5 sequence (P41595 whole entry T140A): as the sequence (P41595 whole entry) above, with T140A counted along it

[13] = biological target: T6, 5-HT2BR A225G^5.46 (Homo sapiens, UniProt P41595, A225G); test: [3H]-LSD competitive radioligand binding; details: A225G^5.46 mutant, relative to wild-type
T6 sequence (P41595 whole entry A225G): as the sequence (P41595 whole entry) above, with A225G counted along it

[14] = biological target: T7, 5-HT2BR A225S^5.46 (Homo sapiens, UniProt P41595, A225S); test: Gq-mediated calcium flux FLIPR assay
T7 sequence (P41595 whole entry A225S): as the sequence (P41595 whole entry) above, with A225S counted along it

[15] = biological target: T5, 5-HT2BR T140A^3.37; details: T140A^3.37 mutant, relative to wild-type
[16] = biological target: T4, 5-HT2BR T140S^3.37; test: Gq-mediated calcium flux FLIPR assay
[17] = biological target: T7, 5-HT2BR A225S^5.46; test: [3H]-LSD competitive radioligand binding; details: A225S^5.46 mutant, relative to wild-type
[18] = biological target: T6, 5-HT2BR A225G^5.46; test: Gq-mediated calcium flux FLIPR assay; details: for Emax: read-out: Gq calcium flux Emax
[19] = biological target: T3, 5-HT2BR T140V^3.37; details: T140V^3.37 mutant, relative to wild-type
[20] = biological target: T5, 5-HT2BR T140A^3.37; test: [3H]-LSD competitive radioligand binding; details: T140A^3.37 mutant, relative to wild-type
[21] = read-out: Gq calcium flux EC50, 5-HT2BR wild-type

## Cc1ccc2[nH]c3c(c2c1)CCNC3Cc1ccccc1Cl (centres unmarked) [2-ClBenzyl]
[1]; 5-HT2BR wild-type
  Gq calcium flux Emax: 28%
[1]; [21]
  EC50: 35 nM

## CN1C[C@H](C(=O)N[C@]2(C)O[C@@]3(O)[C@@H]4CCCN4C(=O)[C@H](Cc4ccccc4)N3C2=O)C=C2c3cccc4[nH]cc(c34)C[C@H]21 [ERG, ergotamine]
[1]; 5-HT2BR wild-type
  Gq calcium flux agonist activity: Gq partial agonists

## CCN(CC)C(=O)[C@@H]1C=C2c3cccc4[nH]cc(c34)C[C@H]2N(C)C1 [LSD, lysergic acid diethylamide]
[2]
  time-dependent recruitment of β-arrestin: attenuated
[3]
  faster dissociation rate compared to 5-HT2BR WT: greater than 10 fold
[4]
  β-arrestin recruitment agonism: abolished
[1]; 5-HT2BR wild-type
  Gq calcium flux agonist activity: Gq partial agonists
  Gq calcium flux Emax: 82% and 79%
[5]
  Gq calcium flux Emax: 67%

## COc1ccc(CC2NCCc3c2[nH]c2ccc(C)cc32)c(Cl)c1OC (centres unmarked) [LY266097]
[6]; 5-HT2BR WT
  β-arrestin2 recruitment activity: without detectable β-arrestin2 activity; also recorded: no β-arrestin2 recruitment activity
[7]
  Gq agonist activity: abolished
[8]
  β-arrestin2 antagonism by BRET: potent β-arrestin2 antagonism
[8]; real-time, across specific time points
  β-arrestin2 recruitment by BRET: At no tested time point did LY266097 display β-arrestin2 recruitment
[1]; 5-HT2BR wild-type
  Gq calcium flux agonist activity: modest Gq partial agonism
  Gq calcium flux Emax: 62% and 54%
[1]; [21]
  EC50: 37 nM and 41 nM
[9]
  Gq function via PI hydrolysis: Gq partial agonism

## COc1ccc(CC2NCCc3c2[nH]c2ccccc32)c(Cl)c1OC (centres unmarked) [des-methyl LY266097 analog]
[1]; 5-HT2BR wild-type
  Gq calcium flux Emax: 93%
[1]; [21]
  EC50: 20 nM

## CC[C@@H](CO)NC(=O)[C@@H]1C=C2c3cccc4[nH]cc(c34)C[C@H]2N(C)C1 [methylergonovine]
[6]
  EC50: 1.2 nM
[10]
  binding affinity: significantly diminished
[11]
  binding affinity: spared
[12]
  β-arrestin2 recruitment: failed to recruit β-arrestin2
[13]
  binding affinity: did not substantially affect
[14]
  EC50: 15 nM
[14]; read-out: Gq calcium flux Emax
  Emax: 58%
[15]
  Gq calcium flux agonism: significantly diminished
[1]; 5-HT2BR wild-type
  Gq calcium flux agonist activity: Gq partial agonists
  Gq calcium flux Emax: 64%
[1]; Gq calcium flux EC50, 5-HT2BR wild-type
  EC50: 31 nM and 19 nM and 23 nM and 21 nM
[16]
  EC50: 18 nM
[16]; read-out: Gq calcium flux Emax
  Emax: 64%
[17]
  binding affinity: did not substantially affect
[18]; Gq calcium flux EC50, A225G^5.46 mutant
  EC50: 12 nM
[18]
  Emax: 55%
[19]
  Gq calcium flux agonism: significantly diminished
[20]
  binding affinity: significantly diminished

## CC[C@@H](CO)NC(=O)[C@@H]1C=C2c3cccc4c3c(cn4C)C[C@H]2N(C)C1 [methysergide]
[1]; 5-HT2BR wild-type
  Gq calcium flux agonist activity: lack of agonist activity
[18]
  Emax: 54%
[19]
  Gq calcium flux agonism: failed to demonstrate any measureable Gq agonist activity

## Cc1ccc2[nH]c3c(c2c1)CCNC3Cc1ccccc1 (centres unmarked) [unsubstituted Benzyl]
[1]; 5-HT2BR wild-type
  Gq calcium flux agonist activity: no detectible Gq agonist activity
